Experimental data as given in patent publication US7048939B2, “Methods for the inhibition of neointima formation” (The Board of Trustees of the Leland Stanford Junior …, priority 2001, dated 2006).

B1: Fas ligand: pro-apoptotic factor, death domain receptor ligand (Oncogene Research) (protein, UniProt P48023 130-281, looked up)
Tumor necrosis factor ligand …: QIGHPSPPPEKKELRKVAHLTGKSNSRSMPLEWEDTYGIVLLSGVKYKKGGLVINETGLYFVYSKVYFRGQSCNNLPLSHKVYMRNSKYPQDLVMMEGKMMSYCTTGQMWARSSYLGAVFNLTSADHLYVNVSELSLVNFEESQTFFGLYKL

Columns and labels:
[1] = test system: infra-renal abdominal aorta; experiment: Morphological analysis of intima/media ratios 28 days after in vivo stent implantation; parameters: species or system New Zealand White rabbits; details: 28 days after stent implantation, stent-based local release from microspheres, 0.25% cholesterol diet
Method: Microsphere Preparation. Biodegradable poly(lactic-co-glycolic-acid)-polyethylene glycol (PLGA/PEG) microspheres were prepared as a modification of previously described techniques. […] Additionally, a pH buffer of 7.4 was incorporated to limit local pH changes in order to stabilize incorporated drugs and render the microspheres more biocompatible. During the microsphere manufacturing process, 2.0 mg of the angiogenesis inhibitor angiostatin (Calbiochem, La Jolla, Calif.) in […] phosphate buffered saline was added to the polymer solution. Control microspheres (blank microspheres) containing polymer and buffer without any drug were also prepared. Stents were prepared as above. In Vivo Stent Implantation. Age-matched adult male New Zealand White rabbits weighing 3.8–4.2 kg were used in accordance to NIH and institutional guidelines (n=6 animals per group). Under general anesthesia, an arteriotomy at the femoral artery was performed and a 5 Fr introducing sheath was placed. Under fluoroscopic guidance, aseptically prepared channeled stents filled with blank or angiostatin microspheres were deployed in the infra-renal abdominal aorta. Stents were post-dilated at 8 atm with a 5 mm angioplasty balloon (Jupiter, Cordis, Miami, Fla.) to a final lumen size of 125% above the baseline with care taken to ensure that […] were present within the stent segment. Pre- and post-deployment digital subtraction angiograms were recorded for the blank procedural control and angiostatin treatment groups. The rabbits were fed a 0.25% cholesterol diet after the intervention. Early 7 day follow up (n=3 per group) or late 28 day follow-up (n=3 per group) animals underwent total-body perfusion-fixation as previously described with immediate excision of the aortic segment containing stent. The 7 day aortic specimens were excised longitudinally and stents were removed. The resulting aortic segments were divided into two equal subsegments. One subsegment of each underwent fixation in 10% neutral buffered formalin and embedded in paraffin-for light microscopic and morphologic analysis. The remaining subsegment of each specimen was snap frozen for molecular assay. The 28 days aortic specimens were fixed in 10% neutral buffered formalin and were embedded in PolyBed (Polysciences, Warrington, Pa.) for light microscopic and morphologic analysis. Morphological Analysis of Intima/Media (I/M) Ratios. The seven day analysis consisted of thick (5 μm) cross sections of the aortic wall were obtained from the paraffin-embedded specimens (n=9 sections per group). An elastic von Gieson-Masson trichrome or Elastica van Gieson-Hematoxylin double stain was performed for light microscopic analysis. For the 28 day specimen analysis (n=3 animals per group), each plastic-embedded aorta with stents was cut into five pieces longitudinally equal lengths. These pieces were stained by modified Verhoff elastic staining. Five cross sectional images of the stained aorta were obtained (n=15 sections per group) from one side of plastic pieces. […] Using Image Pro Plus software (Media Cybernetics, Silver Spring, Md.), the cross-sectional area of the intima and the media were determined by blinded observers. The ratio of intima area to media area subsequently tabulated for each, with the results presented as Table 2. Mean, standard error, and significance were determined.

[2] = test system: infra-renal abdominal aorta; experiment: Local plaque stability parameters: macrophage infiltrate and endothelial density (CD31); assay type: in vivo, New Zealand White rabbits; details: 7 days after stent implantation
Method: In Vivo Stent Implantation. Age-matched adult male New Zealand White rabbits weighing 3.8–4.2 kg were used in accordance to NIH and institutional guidelines (n=6 animals per group). Under general anesthesia, an arteriotomy at the femoral artery was performed and a 5 Fr introducing sheath was placed. Under fluoroscopic guidance, aseptically prepared channeled stents filled with blank or angiostatin microspheres were deployed in the infra-renal abdominal aorta. Stents were post-dilated at 8 atm with a 5 mm angioplasty balloon (Jupiter, Cordis, Miami, Fla.) to a final lumen size of 125% above the baseline with care taken to ensure that […] were present within the stent segment. Pre- and post-deployment digital subtraction angiograms were recorded for the blank procedural control and angiostatin treatment groups. […]
Evaluation of Local Plaque Stability Parameters: Macrophage Infiltrate and Endothelial Density. Cross sections at the 7 day time point evaluated above were obtained (two per segment) from each vessel and incubated with a primary monoclonal antibody to rabbit macrophage (clone RAM-11, 1/800 dilution, DAKO, Carpinteria, Calif.). The number of positive cells per cross section was counted by a blinded observer. […] Mean and standard error were tabulated for each group with significance determined as before and p values as reported.

Molecule | Intima to media ratio (ratio of intimal area to medial area, mean ± SE) [1] | Number of plaque microvessels (CD31) per cross section (mean ± SE) [2] | Number of cross-sectional macrophages (mean ± SE) ([2]; RAM-11 positive cells per cross section) [P = 0.0011]
FGF: acidic FGF (Calbiochem) loaded with endotoxin-free heparin as a stabilizer | 1.634 ± 0.051 |  | 
Angiostatin | 1.610 ± 0.050 | 0.111 ± 0.111 | 34.889 ± 3.948
CCC[C@H](N[C@@H](C)C(=O)N1[C@H](C(=O)O)C[C@@H]2CCCC[C@@H]21)C(=O)O [ATIIr, perindoprilate, reference compound] | 1.730 ± 0.090 |  | 
TGFβ1: transforming growth factor β1 (Oncogene Research) | 1.803 ± 0.053 |  | 
CN1CCC[C@H]1c1cccnc1 [Nicotine, S-3-(1-methyl-2-pyrrolidinyl)pyridine, reference compound] | 1.377 ± 0.060 |  | 
AAT: elastase inhibitor alpha-1-antitrypsin (Calbiochem) | 1.322 ± 0.060 |  | 
CCNCCN(CC)N(O)N=O [NO, N-Ethyl-2-(1-ethyl-2-hydroxy-2-nitrosohydrazino) ethanamine, reference compound] | 1.338 ± 0.051 |  | 
B1 | 1.356 ± 0.053 |  | 
